Laboratory results taken from ChEMBL document CHEMBL3045826, “Synthesis of new derivatives of 2,2-dimethyl-2,3-dihydro-7-benzo[b]furanol with potential antimicrobial activity” (Med Chem Res, 2009).
In brackets after ≈: the same amount, converted by molar mass. Activity calls are given as the source filed them. No cut-off for these calls is given here.

Tests used:
Enterococcus hirae [1] = test: Antibacterial activity against Enterococcus hirae ATCC 10541 at 400 ug after 18 hr by disk diffusion method; assay type: functional; details: for zone of inhibition at 400 µg/disc: ATCC 10541, 18 h, read-out: DIZ
Escherichia coli [2] = test: Antibacterial activity against Escherichia coli ATCC 10538 after 18 hr; assay type: functional, organism-based
Candida parapsilosis [3] = test: Antifungal activity against Candida parapsilosis ATCC 22019 after 18 hr; assay type: functional; details: Lodderomyces parapsilosis, ATCC 22019, 18 h
Pseudomonas aeruginosa [4] = test: Antibacterial activity against Pseudomonas aeruginosa NCTC 6749 after 18 hr; assay type: functional, organism-based
Candida albicans [5] = test: Antifungal activity against Candida albicans ATCC 90028 after 18 hr; assay type: functional; details: ATCC 90028, 18 h
Escherichia coli [6] = test: Antibacterial activity against Escherichia coli NCTC 8196 after 18 hr; assay type: functional, organism-based
Staphylococcus aureus [7] = test: Antibacterial activity against Staphylococcus aureus ATCC 25923 at 400 ug after 18 hr by disk diffusion method; assay type: functional; details: for zone of inhibition at 400 µg/disc: ATCC 25923, 18 h, read-out: DIZ
Candida albicans [8] = test: Antifungal activity against Candida albicans ATCC 90028 at 400 ug after 24 to 48 hr by disk diffusion method; assay type: functional; details: for zone of inhibition at 400 µg/disc: read-out: DIZ
[9] = tested on: Bordetella bronchiseptica; test: Antibacterial activity against Bordetella bronchiseptica ATCC 461 at 400 ug after 18 hr by disk diffusion method; assay type: functional; details: for zone of inhibition at 400 µg/disc: ATCC 461, 18 h, read-out: DIZ
Escherichia coli [10] = test: Antibacterial activity against Escherichia coli ATCC 25922 at 400 ug after 18 hr by disk diffusion method; assay type: functional
Staphylococcus aureus [11] = test: Antibacterial activity against Staphylococcus aureus ATCC 29213 after 18 hr; assay type: functional; details: ATCC 29213, 18 h
Staphylococcus aureus [12] = test: Antibacterial activity against Staphylococcus aureus ATCC 6538P after 18 hr; assay type: functional
Staphylococcus aureus [13] = test: Antibacterial activity against Staphylococcus aureus ATCC 29213 at 400 ug after 18 hr by disk diffusion method; assay type: functional; details: for zone of inhibition at 400 µg/disc: ATCC 29213, 18 h, read-out: DIZ
Escherichia coli [14] = test: Antibacterial activity against Escherichia coli ATCC 25922 after 18 hr; assay type: functional, organism-based
Bacillus subtilis [15] = test: Antibacterial activity against Bacillus subtilis ATCC 6633 at 400 ug after 18 hr by disk diffusion method; assay type: functional; details: for zone of inhibition at 400 µg/disc: ATCC 6633, 18 h, read-out: DIZ
Candida albicans [16] = test: Antifungal activity against Candida albicans ATCC 10231 after 18 hr; assay type: functional; details: ATCC 10231, 18 h
Staphylococcus aureus [17] = test: Antibacterial activity against Staphylococcus aureus ATCC 25923 after 18 hr; assay type: functional; details: ATCC 25923, 18 h
Staphylococcus aureus [18] = test: Antibacterial activity against Staphylococcus aureus NCTC 4163 at 400 ug after 18 hr by disk diffusion method; assay type: functional; details: for zone of inhibition at 400 µg/disc: NCTC 4163, 18 h, read-out: DIZ
Candida albicans [19] = test: Antifungal activity against Candida albicans ATCC 10231 at 400 ug after 24 to 48 hr by disk diffusion method; assay type: functional; details: for zone of inhibition at 400 µg/disc: read-out: DIZ
Pseudomonas aeruginosa [20] = test: Antibacterial activity against Pseudomonas aeruginosa NCTC 6749 at 400 ug after 18 hr by disk diffusion method; assay type: functional, organism-based
Pseudomonas aeruginosa [21] = test: Antibacterial activity against Pseudomonas aeruginosa ATCC 15442 at 400 ug after 18 hr by disk diffusion method; assay type: functional; details: for zone of inhibition at 400 µg/disc: ATCC 15442, 18 h, read-out: DIZ
Escherichia coli [22] = test: Antibacterial activity against Escherichia coli ATCC 10538 at 400 ug after 18 hr by disk diffusion method; assay type: functional
Proteus vulgaris [23] = test: Antibacterial activity against Proteus vulgaris NCTC 4635 after 18 hr; assay type: functional; details: NCTC 4635, 18 h
Pseudomonas aeruginosa [24] = test: Antibacterial activity against Pseudomonas aeruginosa ATCC 15442 after 18 hr; assay type: functional; details: ATCC 15442, 18 h
Staphylococcus aureus [25] = test: Antibacterial activity against Staphylococcus aureus ATCC 6538P at 400 ug after 18 hr by disk diffusion method; assay type: functional; details: for zone of inhibition at 400 µg/disc: read-out: DIZ
[26] = tested on: Bordetella bronchiseptica; test: Antibacterial activity against Bordetella bronchiseptica ATCC 461 after 18 hr; assay type: functional, organism-based
Proteus vulgaris [27] = test: Antibacterial activity against Proteus vulgaris NCTC 4635 at 400 ug after 18 hr by disk diffusion method; assay type: functional; details: for zone of inhibition at 400 µg/disc: NCTC 4635, 18 h, read-out: DIZ
Staphylococcus aureus [28] = test: Antibacterial activity against Staphylococcus aureus NCTC 4163 after 18 hr; assay type: functional; details: NCTC 4163, 18 h
Escherichia coli [29] = test: Antibacterial activity against Escherichia coli NCTC 8196 at 400 ug after 18 hr by disk diffusion method; assay type: functional; details: for zone of inhibition at 400 µg/disc: NCTC 8196, 18 h, read-out: DIZ
Candida parapsilosis [30] = test: Antifungal activity against Candida parapsilosis ATCC 22019 at 400 ug after 24 to 48 hr by disk diffusion method; assay type: functional; details: for zone of inhibition at 400 µg/disc: Lodderomyces parapsilosis, read-out: DIZ
Bacillus subtilis [31] = test: Antibacterial activity against Bacillus subtilis ATCC 6633 after 18 hr; assay type: functional; details: ATCC 6633, 18 h
Enterococcus hirae [32] = test: Antibacterial activity against Enterococcus hirae ATCC 10541 after 18 hr; assay type: functional; details: ATCC 10541, 18 h
[33] = tested on: Human immunodeficiency virus 1; test: Antiviral activity against Human immunodeficiency virus 1 infected human MT4 cells assessed as inhibition of virus-induced cytopathogenicity after 4 days by MTT assay; assay type: functional, organism-based; details: Human immunodeficiency virus 1, MT4, 96 h
[34] = Cytotoxicity against Homo sapiens (human) MT4 cells after 96 hr by MTT assay; assay type: cell-based

## CN(C)CC(O)COc1c(Br)c(Br)c(Br)c2c1OC(C)(C)C2 (configuration not stated)
Enterococcus hirae [1]
  zone of inhibition at 400 µg/disc: 19 mm
Escherichia coli [2]
  MIC: inactive
Candida parapsilosis [3]
  MIC: 100 µg/mL (≈ 199 µM)
Pseudomonas aeruginosa [4]
  MIC: inactive
Candida albicans [5]
  MIC: 200 µg/mL (≈ 398 µM)
Escherichia coli [6]
  MIC: inactive
Staphylococcus aureus [7]
  zone of inhibition at 400 µg/disc: 18 mm
Candida albicans [8]
  zone of inhibition at 400 µg/disc: 15 mm
[9]
  zone of inhibition at 400 µg/disc: 13 mm
Escherichia coli [10]; ATCC 25922, 18 h, read-out: DIZ
  zone of inhibition at 400 µg/disc: 13 mm
Staphylococcus aureus [11]
  MIC: 100 µg/mL (≈ 199 µM)
Staphylococcus aureus [12]
  MIC: 50 µg/mL (≈ 99.6 µM)
Staphylococcus aureus [13]
  zone of inhibition at 400 µg/disc: 19 mm
Escherichia coli [14]
  MIC: inactive
Bacillus subtilis [15]
  zone of inhibition at 400 µg/disc: 24 mm
Candida albicans [16]
  MIC: 200 µg/mL (≈ 398 µM)
Staphylococcus aureus [17]
  MIC: 100 µg/mL (≈ 199 µM)
Staphylococcus aureus [18]
  zone of inhibition at 400 µg/disc: 18 mm
Candida albicans [19]
  zone of inhibition at 400 µg/disc: 17 mm
Pseudomonas aeruginosa [20]
  diameter of the inhibition zone (DIZ): inactive
Pseudomonas aeruginosa [21]
  zone of inhibition at 400 µg/disc: 23 mm
Escherichia coli [22]; ATCC 10538, 18 h, read-out: DIZ
  zone of inhibition at 400 µg/disc: 13 mm
Proteus vulgaris [23]
  MIC: 25 µg/mL (≈ 49.8 µM)
Pseudomonas aeruginosa [24]
  MIC: 25 µg/mL (≈ 49.8 µM)
Staphylococcus aureus [25]
  zone of inhibition at 400 µg/disc: 19 mm
[26]
  MIC: inactive
Proteus vulgaris [27]
  zone of inhibition at 400 µg/disc: 23 mm
Staphylococcus aureus [28]
  MIC: 50 µg/mL (≈ 99.6 µM)
Escherichia coli [29]
  zone of inhibition at 400 µg/disc: 15 mm
Candida parapsilosis [30]
  zone of inhibition at 400 µg/disc: 20 mm
Bacillus subtilis [31]
  MIC: 12.5 µg/mL (≈ 24.9 µM)
Enterococcus hirae [32]
  MIC: 50 µg/mL (≈ 99.6 µM)

## CC(C)NCC(O)COc1c(Br)c(Br)c(Br)c2c1OC(C)(C)C2 (configuration not stated)
Enterococcus hirae [1]
  zone of inhibition at 400 µg/disc: 17 mm
Escherichia coli [2]
  MIC: inactive
Candida parapsilosis [3]
  MIC: 100 µg/mL (≈ 194 µM)
Pseudomonas aeruginosa [4]
  MIC: inactive
Candida albicans [5]
  MIC: 200 µg/mL (≈ 388 µM)
Escherichia coli [6]
  MIC: inactive
Staphylococcus aureus [7]
  zone of inhibition at 400 µg/disc: 18 mm
Candida albicans [8]
  zone of inhibition at 400 µg/disc: 15 mm
[9]
  zone of inhibition at 400 µg/disc: 11 mm
Escherichia coli [10]
  diameter of the inhibition zone (DIZ): inactive
Staphylococcus aureus [11]
  MIC: 25 µg/mL (≈ 48.4 µM)
Staphylococcus aureus [12]
  MIC: 25 µg/mL (≈ 48.4 µM)
Staphylococcus aureus [13]
  zone of inhibition at 400 µg/disc: 20 mm
Escherichia coli [14]
  MIC: inactive
Bacillus subtilis [15]
  zone of inhibition at 400 µg/disc: 23 mm
Candida albicans [16]
  MIC: 200 µg/mL (≈ 388 µM)
Staphylococcus aureus [17]
  MIC: 25 µg/mL (≈ 48.4 µM)
Staphylococcus aureus [18]
  zone of inhibition at 400 µg/disc: 20 mm
Candida albicans [19]
  zone of inhibition at 400 µg/disc: 16 mm
Pseudomonas aeruginosa [20]
  diameter of the inhibition zone (DIZ): inactive
Pseudomonas aeruginosa [21]
  zone of inhibition at 400 µg/disc: 22 mm
Escherichia coli [22]
  diameter of the inhibition zone (DIZ): inactive
Proteus vulgaris [23]
  MIC: 12.5 µg/mL (≈ 24.2 µM)
Pseudomonas aeruginosa [24]
  MIC: 12.5 µg/mL (≈ 24.2 µM)
Staphylococcus aureus [25]
  zone of inhibition at 400 µg/disc: 21 mm
[26]
  MIC: inactive
Proteus vulgaris [27]
  zone of inhibition at 400 µg/disc: 24 mm
Staphylococcus aureus [28]
  MIC: 50 µg/mL (≈ 96.9 µM)
Escherichia coli [29]
  zone of inhibition at 400 µg/disc: 11 mm
Candida parapsilosis [30]
  zone of inhibition at 400 µg/disc: 17 mm
Bacillus subtilis [31]
  MIC: 12.5 µg/mL (≈ 24.2 µM)
Enterococcus hirae [32]
  MIC: 25 µg/mL (≈ 48.4 µM)

## CC1(C)Cc2cccc(O)c2O1
Enterococcus hirae [1]
  diameter of the inhibition zone (DIZ): inactive
Staphylococcus aureus [7]
  diameter of the inhibition zone (DIZ): inactive
Candida albicans [8]
  diameter of the inhibition zone (DIZ): inactive
[9]
  diameter of the inhibition zone (DIZ): inactive
Escherichia coli [10]
  diameter of the inhibition zone (DIZ): inactive
Staphylococcus aureus [13]
  diameter of the inhibition zone (DIZ): inactive
Bacillus subtilis [15]
  diameter of the inhibition zone (DIZ): inactive
Staphylococcus aureus [18]
  diameter of the inhibition zone (DIZ): inactive
Candida albicans [19]
  diameter of the inhibition zone (DIZ): inactive
[33]
  EC50: > 100 µM
Pseudomonas aeruginosa [20]
  diameter of the inhibition zone (DIZ): inactive
Pseudomonas aeruginosa [21]
  diameter of the inhibition zone (DIZ): inactive
Escherichia coli [22]
  diameter of the inhibition zone (DIZ): inactive
Staphylococcus aureus [25]
  diameter of the inhibition zone (DIZ): inactive
Proteus vulgaris [27]
  diameter of the inhibition zone (DIZ): inactive
Escherichia coli [29]
  diameter of the inhibition zone (DIZ): inactive
[34]
  CC50 at 96 h: 100 µM
Candida parapsilosis [30]
  diameter of the inhibition zone (DIZ): inactive
